One block for each compound: values may come before it.
Biological target: T1, human glucagon receptor (Homo sapiens, UniProt P47871)
T1 construct: made in house; host or cells: FreeStyle CHO cells, transient transfection with pMSRαneo/hGCGR; membrane fraction (35,000 rpm pellet)
Test: Glucagon binding inhibitory activity ([125I]-glucagon binding to glucagon receptor membrane protein)
Conditions: test compound 10 μM, 0.4% DMSO = 0%, non-labeled glucagon 1 μM = 100%; for inhibition at 10 µM: read-out: inhibitory rate (%) at 10 μM
How it was run: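 Receptor source was a membrane fraction of transiently transfected CHO cells bearing human receptor; 90 min room-temperature binding, filtration harvest, scintillation counting.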

T1 sequence (P47871 26-477): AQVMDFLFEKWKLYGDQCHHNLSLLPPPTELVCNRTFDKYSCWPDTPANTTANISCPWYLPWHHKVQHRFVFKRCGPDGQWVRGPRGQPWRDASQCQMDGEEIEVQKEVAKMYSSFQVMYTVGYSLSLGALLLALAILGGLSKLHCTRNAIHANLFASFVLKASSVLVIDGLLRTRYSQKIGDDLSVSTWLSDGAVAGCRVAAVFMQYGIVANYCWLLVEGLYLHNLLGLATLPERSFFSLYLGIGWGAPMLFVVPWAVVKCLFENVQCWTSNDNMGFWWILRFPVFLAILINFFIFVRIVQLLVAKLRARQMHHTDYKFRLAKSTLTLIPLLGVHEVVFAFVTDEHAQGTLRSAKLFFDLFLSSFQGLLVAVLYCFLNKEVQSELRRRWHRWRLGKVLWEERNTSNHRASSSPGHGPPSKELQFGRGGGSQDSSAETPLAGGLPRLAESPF

Compound: COCc1c(C(Nc2ccc(C(=O)N(C)CCC(=O)O)cc2)C2CCCCC2)oc2ccc(F)cc12 (stereo not shown) [Example A48, 3-[{[4-({cyclohexyl[5-fluoro-3-(methoxymethyl)-1-benzofuran-2-yl]methyl}amino)phenyl]carbonyl}(methyl)amino]propanoic acid]
- inhibition at 10 µM: 66%

Compound: Cc1c(C(Nc2ccc(C(=O)N(C)CCC(=O)O)nc2)C2CCCCC2)sc2ccccc12 (stereo not shown) [Example A59, 3-{[(5-{[cyclohexyl(3-methyl-1-benzothiophen-2-yl)methyl]amino}pyridin-2-yl)carbonyl](methyl)amino}propanoic acid]
- inhibition at 10 µM: 77%

Compound: Cc1c(C(Nc2ccc(C(=O)N(C)CCC(=O)O)nc2)C2CCCCC2)sc2ccccc12 (stereo not shown) [Example A60, 3-{[(5-{[cyclohexyl(3-methyl-1-benzothiophen-2-yl)methyl]amino}pyridin-2-yl)carbonyl](methyl)amino}propanoic acid]
- inhibitory rate (%) at 10 μM: 85%

Compound: Cc1c(C(Nc2ccc(C(=O)NCCC(=O)O)nc2)C2CCCCC2)sc2ccccc12 (stereo not shown) [Example A62, 3-{[(5-{[cyclohexyl(3-methyl-1-benzothiophen-2-yl)methyl]amino}pyridin-2-yl)carbonyl]amino}propanoic acid]
- inhibition at 10 µM: 81%

Compound: Cc1c(C(Nc2ccc(C(=O)NCCC(=O)O)cc2)C2CCCC2)sc2ccccc12 (stereo not shown) [Example A63, 3-{[(4-{[cyclopentyl(3-methyl-1-benzothiophen-2-yl)methyl]amino}phenyl)carbonyl]amino}propanoic acid]
- inhibition at 10 µM: 90%

Compound: Cc1c(C(Nc2ccc(C(=O)N(C)CCC(=O)O)cc2)C2CCCC2)sc2ccccc12 (stereo not shown) [Example A64, 3-{[(4-{[cyclopentyl(3-methyl-1-benzothiophen-2-yl)methyl]amino}phenyl)carbonyl](methyl)amino}propanoic acid]
- inhibition at 10 µM: 84%

Now from value to compound:

- inhibition at 10 µM: 67%
Compound: COCc1c(C(Nc2ccc(C(=O)NCCC(=O)O)cc2)C2CCCCC2)oc2ccc(F)cc12 (stereo not shown) [Example A47, 3-({[4-({cyclohexyl[5-fluoro-3-(methoxymethyl)-1-benzofuran-2-yl]methyl}amino)phenyl]carbonyl}amino)propanoic acid]

- inhibition at 10 µM: 71%
Compound: Cc1c(C(Nc2ccc(C(=O)NCCC(=O)O)cn2)C2CCCCC2)oc2ccc(F)cc12 (stereo not shown) [Example A51, 3-{[(6-{[cyclohexyl(5-fluoro-3-methyl-1-benzofuran-2-yl)methyl]amino}pyridin-3-yl)carbonyl]amino}propanoic acid]

- inhibition at 10 µM: 64%
Compound: Cc1c(C(Nc2ccc(C(=O)N(C)CCC(=O)O)cn2)C2CCCCC2)oc2ccc(F)cc12 (stereo not shown) [Example A52, 3-{[(6-{[cyclohexyl(5-fluoro-3-methyl-1-benzofuran-2-yl)methyl]amino}pyridin-3-yl)carbonyl](methyl)amino}propanoic acid]

- inhibitory rate (%) at 10 μM: 52%
Compound: Cc1c(C(Nc2ccc(C(=O)N(C)CCC(=O)O)cn2)C2CCCCC2)oc2ccc(F)cc12 (stereo not shown) [Example A54, 3-{[(6-{[cyclohexyl(5-fluoro-3-methyl-1-benzofuran-2-yl)methyl]amino}pyridin-3-yl)carbonyl](methyl)amino}propanoic acid]

- inhibition at 10 µM: 90%
Compound: Cc1c(C(Nc2ccc(C(=O)NCCC(=O)O)nc2)C2CCCCC2)oc2ccc(F)cc12 (stereo not shown) [Example A55, 3-{[(5-{[cyclohexyl(5-fluoro-3-methyl-1-benzofuran-2-yl)methyl]amino}pyridin-2-yl)carbonyl]amino}propanoic acid]

- inhibition at 10 µM: 76%
Compound: Cc1c(C(Nc2ccc(C(=O)N(C)CCC(=O)O)nc2)C2CCCCC2)oc2ccc(F)cc12 (stereo not shown) [Example A56, 3-{[(5-{[cyclohexyl(5-fluoro-3-methyl-1-benzofuran-2-yl)methyl]amino}pyridin-2-yl)carbonyl](methyl)amino}propanoic acid]

- inhibitory rate (%) at 10 μM: 85%
Compound: Cc1c(C(Nc2ccc(C(=O)N(C)CCC(=O)O)nc2)C2CCCCC2)oc2ccc(F)cc12 (stereo not shown) [Example A57]

Source: patent US8436043B2 (Takeda Pharmaceutical Company Limited, priority 2008, dated 2013)
